# Patent US12274898B2, “Substituted benzodiazepines as antibody-drug conjugates” (priority 2018, dated 2025)
# Non-standard residues stand in square brackets, D forms with d. Residues, ends and D or L forms follow the SMILES beside them. Dolaproine = CO[C@@H]([C@@H]1CCCN1)[C@@H](C)C(=O)O; Dil = CC[C@H](C)[C@H](NC)[C@@H](CC(=O)O)OC; NMeV = CN[C@H](C(=O)O)C(C)C
# Legend:
# NCI-N87 cancer cells [1] = assay: In vitro analysis of benzodiazepine dimer derivatives, cell viability by MTT assay; type: cell-based; conditions: 6 days incubation, sigmoidal dose-response fit
# Experimental: NCI-N87 cancer cells were seeded into 24-well plates at 25×10^3 cells/1 mL medium/well. The plates were incubated for 24 hours at 37° C. in a humidified 5% CO2-in-air atmosphere. Benzodiazepine dimer derivatives were dissolved initially in DMSO at a concentration of 10 mM. Serial dilutions were made in DMSO. The series of compound dilutions in DMSO were added to triplicate wells of 24-well plates at 5 μL per well. Three wells on each individual plate received 5 μL of DMSO without compound as controls. The final concentration of DMSO per well was 0.5%. The plates were incubated for 6 days at 37° C. in a humidified 5% CO2-in-air atmosphere. Cell viability was determined by the MTT assay and IC50 was generated using a sigmoidal dose-response nonlinear regression curve fit (GraphPad Software Inc.). Results thereof are shown in FIG. 1, FIG. 2, FIG. 3, and Table 2.
# [2] = Solubility test: relative solubility by retention time on analytical HPLC; type: physicochemical; conditions: HPLC retention times under acidic (0.1% TFA); RP-C18, 5→95% ACN in water over 15 minutes; measure of relative solubility
# Experimental: A solubility study was conducted to check the relative solubility of D-102, D-103, D-104, D-105, D-106, and D-107 on the retention time using analytical HPLC.
# NCI-N87 cancer cells [3] = assay: In vitro analysis of protein-drug conjugates (cell cytotoxicity of antibody-drug conjugate), MTT assay; type: cell-based; conditions: ADCs, 6 days incubation
# Experimental: NCI-N87cancer cells were seeded in 96-well plates at a density 5000 cells per well in 100 μL of medium, and cultured for 24 hours. The four compounds ADCs in Example 77 were treated by serial dilutions of 1:4 from 50 nM to 0.0003 nM, and the antibody drug conjugate T-DM1 was treated by serial dilutions of 1:4 from 50 nM to 0.0007 nM. The series of compound dilutions in DMSO were added to triplicate wells of […] at 5 μL per well. Three wells on each individual plate received 5 μL of DMSO without compound as controls. The final concentration of DMSO per well was 0.5%. The plates were incubated for 6 days at 37° C. in a humidified 5% CO2-in-air atmosphere. Cell viability was determined by the MTT assay and IC50 was generated using a sigmoidal dose-response nonlinear regression curve fit (GraphPad software Inc.)
# Results of in vitro analysis of compounds T-1-AB, T-2-AB, T-3-AB, and T-4-AB, are shown in FIG. 4, FIG. 5, FIG. 6, FIG. 7, and Table 4.
Compound,"IC50 (NCI-N87 cancer cells [1]; Homo sapiens, 144 h)",Retention time [2],IC50 (NCI-N87 cancer cells [1]),IC50 (NCI-N87 cancer cells [3])
COc1cc2c(cc1OCc1cc(O)cc(COc3cc4c(cc3OC)C(=O)N3Cc5c(ncn5C)C[C@H]3C=N4)c1)N=C[C@@H]1Cc3ncn(C)c3CN1C2=O [Compound D-101],17.8 ± 6.6 nM,,,
COc1cc2c(cc1OCc1cc(O)cc(COc3cc4c(cc3OC)C(=O)N3Cc5ncn(C)c5C[C@H]3C=N4)c1)N=C[C@@H]1Cc3c(ncn3C)CN1C2=O [Compound D-102],4.99 ± 0.785 nM,6.50 min,,
COc1cc2c(cc1OCc1cc(O)cc(COc3cc4c(cc3OC)C(=O)N3Cc5ccsc5C[C@H]3C=N4)c1)N=C[C@@H]1Cc3sccc3CN1C2=O [Compound D-103],0.0472 ± 0.01 nM,9.75 min,,
COc1cc2c(cc1OCc1cc(COc3cc4c(cc3OC)C(=O)N3Cc5ccsc5C[C@H]3C=N4)cc(CN(C)C)c1)N=C[C@@H]1Cc3sccc3CN1C2=O [Compound D-104],0.013 ± 0.003 nM,8.98 min,,
COc1cc2c(cc1OCc1cc(O)cc(COc3cc4c(cc3OC)C(=O)N3Cc5ncn(C)c5C[C@H]3C=N4)c1)N=C[C@@H]1Cc3ccccc3CN1C2=O [Compound D-105],0.933 ± 0.344 nM,8.05 min,,
COc1cc2c(cc1OCc1cc(COc3cc4c(cc3OC)C(=O)N3Cc5ncn(C)c5C[C@H]3C=N4)cc(CN(C)C)c1)N=C[C@@H]1Cc3c(ncn3C)CN1C2=O [Compound D-106],28.9 ± 15 nM,6.02 min,,
COc1cc2c(cc1OCc1cc(COc3cc4c(cc3OC)C(=O)N3Cc5ccoc5C[C@H]3C=N4)cc(CN(C)C)c1)N=C[C@@H]1Cc3occc3CN1C2=O [Compound D-107],0.013 ± 0.002 nM,8.60 min,,
COc1cc2c(cc1OCc1cc(COc3cc4c(cc3OC)C(=O)N3Cc5sccc5C[C@H]3C=N4)cc(CN(C)C)c1)N=C[C@@H]1Cc3ccsc3CN1C2=O [Compound D-108],0.008 ± 0.001 nM,,,
COc1cc2c(cc1OCc1cc(COc3cc4c(cc3OC)C(=O)N3Cc5cc(Br)sc5C[C@H]3C=N4)cc(CN(C)C)c1)N=C[C@@H]1Cc3sc(Br)cc3CN1C2=O [Compound D-109],0.025 ± 0.01 nM,,,
COc1cc2c(cc1OCc1cc(O)cc(COc3cc4c(cc3OC)C(=O)N3Cc5c(n(C)c[n+]5C)C[C@H]3C=N4)c1)N=C[C@@H]1Cc3c([n+](C)cn3C)CN1C2=O [Compound D-110],588 ± 223 nM,,,
COc1ccc(C2=CN3C(=O)c4cc(OC)c(OCc5cc(COc6cc7c(cc6OC)C(=O)N6Cc8ccsc8C[C@H]6C=N7)cc(CN(C)C)c5)cc4N=C[C@@H]3C2)cc1 [Compound D-114],1.89 nM,,,
"CC[C@H](C)[C@@H]([C@@H](CC(=O)N1CCC[C@H]1[C@H](OC)[C@@H](C)C(=O)N[C@@H](Cc1ccccc1)C(=O)OC)OC)N(C)C(=O)[C@@H](NC(=O)[C@@H](NC)C(C)C)C(C)C [MMAF-OMe, reference compound] (H-[NMeV]V[Dil][Dolaproine]F-OMe)",,,0.182 nM,
"COc1cc2c(cc1OCc1cc(COc3cc4c(cc3OC)C(=O)N3Cc5ccccc5C[C@H]3C=N4)cc(CN(C)C)c1)N=C[C@@H]1Cc3ccccc3CN1C2=O [Ref-1, reference compound]",0.013 ± 0.003 nM,9.30 min,,
"COc1cc2c(cc1OCc1cccc(COc3cc4c(cc3OC)C(=O)N3Cc5ccccc5C[C@H]3C=N4)c1)N=C[C@@H]1Cc3ccccc3CN1C2=O [Ref-2, reference compound]",0.0089 ± 0.002 nM,,,
"COc1cc2c(cc1OCc1cc(O)cc(COc3cc4c(cc3OC)C(=O)N3Cc5ccccc5C[C@H]3C=N4)c1)N=C[C@@H]1Cc3ccccc3CN1C2=O [Ref-3, reference compound]",0.025 ± 0.018 nM,10.00 min,,
T-DM1,,,,0.213 ± 0.12 nM
